Reference: patent publication US20200101108A1, “METHODS OF TREATING T CELL EXHAUSTION BY INHIBITING OR MODULATING T CELL RECEPTOR SIGNALING” (THE BOARD OF TRUSTEES OF THE LE-LAND STANDFORD JUNIOR …, priority 2017, published 2020)
Each block holds one molecule with its values, some of them ahead of it.

What was measured:
[1] = target: Fyn (Homo sapiens, UniProt P06241); details: cited from earlier work
[2] = tested on: Src kinases; details: cited from earlier work
[3] = tested on: CD19.28z CAR T cells; assay: CAR T cell activation and degranulation (CD69/CD107a) on co-culture with Nalm6 tumor cells in presence of drug; details: nanomolar levels; 6 hours co-culture with tumor
[4] = target: Lck (Homo sapiens, UniProt P06239); details: cited from earlier work
[5] = tested on: HA-GD2.28z CAR T cells; assay: Incucyte cytotoxicity after expansion in drug and removal of drug before tumor co-culture; details: expanded in drug, drug removed 18-24 hours before 72 hours co-culture
[6] = tested on: HA-GD2.28z CAR T cells; assay: Cytokine release assay (ELISA), CAR T cells co-cultured with GD2-overexpressing nalm6 in presence of drug; details: drug present during 24 hours co-culture
[7] = tested on: HA-GD2.28z CAR T cells; assay: Cytokine release after expansion in drug and removal of drug before tumor co-culture; assay type: cell-based, human
[8] = tested on: GD2.28z.FKBP CAR; assay: Regulation of GD2.28z.FKBP CAR surface expression by shield-1 (FACS); assay type: cell-based, human; details: adding or subtracting shield-1 in culture medium
Text: FIG. 1: Characterization of the GD2.28z.FKBP CAR. T cells were transduced with lentivirus encoding the GD2.28z.FKBP CAR on day 1 after activation and subsequently cultured with various concentrations of shield-1 in the growth medium. On day 7, CAR expression was quantified via FACS.

[9] = target: CD19 (Homo sapiens (Human)) (UniProt P15391)

Lck, sequence (P06239 whole entry, species assumed): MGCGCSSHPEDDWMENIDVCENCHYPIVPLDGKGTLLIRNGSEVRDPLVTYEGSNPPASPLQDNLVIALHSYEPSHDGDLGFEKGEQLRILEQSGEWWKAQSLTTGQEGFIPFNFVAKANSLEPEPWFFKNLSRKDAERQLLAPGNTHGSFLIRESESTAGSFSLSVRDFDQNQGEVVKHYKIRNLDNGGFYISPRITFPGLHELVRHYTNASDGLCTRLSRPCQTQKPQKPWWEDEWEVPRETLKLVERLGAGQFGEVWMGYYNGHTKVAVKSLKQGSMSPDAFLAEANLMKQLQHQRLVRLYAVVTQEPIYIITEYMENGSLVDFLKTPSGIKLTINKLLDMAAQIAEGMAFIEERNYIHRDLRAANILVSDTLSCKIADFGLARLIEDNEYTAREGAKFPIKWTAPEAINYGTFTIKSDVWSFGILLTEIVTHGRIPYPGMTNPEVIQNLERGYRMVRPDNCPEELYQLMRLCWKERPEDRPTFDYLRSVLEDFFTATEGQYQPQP
Fyn, sequence (P06241 whole entry, species assumed): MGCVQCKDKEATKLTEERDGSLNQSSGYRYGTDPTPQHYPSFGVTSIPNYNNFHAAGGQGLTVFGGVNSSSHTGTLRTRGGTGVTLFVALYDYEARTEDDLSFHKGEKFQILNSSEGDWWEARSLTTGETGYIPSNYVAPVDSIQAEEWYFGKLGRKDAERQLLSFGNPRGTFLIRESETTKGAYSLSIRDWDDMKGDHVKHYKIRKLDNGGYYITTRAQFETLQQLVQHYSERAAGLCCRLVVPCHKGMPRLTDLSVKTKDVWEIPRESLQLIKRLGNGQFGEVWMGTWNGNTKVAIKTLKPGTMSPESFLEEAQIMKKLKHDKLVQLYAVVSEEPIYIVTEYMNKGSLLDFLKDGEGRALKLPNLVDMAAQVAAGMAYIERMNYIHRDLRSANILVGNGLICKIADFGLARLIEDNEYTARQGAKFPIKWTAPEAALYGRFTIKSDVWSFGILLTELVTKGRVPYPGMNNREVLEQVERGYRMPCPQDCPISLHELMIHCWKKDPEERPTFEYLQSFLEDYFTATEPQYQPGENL

Molecule: Cc1ccc(C(=O)Nc2ccc(CN3CCN(C)CC3)c(C(F)(F)F)c2)cc1C#Cc1cnc2cccnn12 [ponatinib, 3-(imidazo[1,2-b]pyridazin-3-ylethynyl)-4-methyl-N-(4-((4-methylpiperazin-1-yl)methyl)-3-(trifluoromethyl)phenyl)benzamide]
inhibition of Fyn [1]: does not affect the function of Fyn or Src kinases | inhibition of Src kinases [2]: does not affect the function of Fyn or Src kinases | activation and degranulation (CD69 and CD107a co-expression) [3]: potently inhibited activation and degranulation of CAR T cells in a dose-dependent manner | inhibition of Lck [4]: can bind to and inhibit Lck | cytotoxic response [5]: more potent cytotoxic response | IFNγ secretion in response to tumor [6]: potently inhibited | IL-2 secretion in response to tumor [6]: potently inhibited | reversibility of the inhibitory effect on CAR T cell function [7]: reversible | CAR T cell cytokine secretion ([7]; expanded in drug, drug removed 18-24 hours before 24 hours co-culture): dose-dependently augmented

Molecule: CC[C@H](C(=O)N1CCCC[C@H]1C(=O)O[C@H](CCc1ccc(OC)c(OC)c1)c1cccc(OCCN2CCOCC2)c1)c1cc(OC)c(OC)c(OC)c1 [shield-1]
CAR surface expression [8]: rapidly and dose-dependently regulated

CD69 and CD107a surface expression (FACS) after 6 h co-culture [9]: 80%
Molecule: CD19.28z CAR (FMC63 scFv)
